Measured values as given in the NIST ThermoML archive (doi:10.1021/je700321s).

Assay: xn = mol fraction of the nth substance listed
Settings: Liquid, Vibrating tube method

CC(C)O [propan-2-ol] + O=C=O
Settings | mass density [kg/m3]
313.08 K, 10061 kPa, x2 = 0.7943 | 800.9
313.08 K, 10515 kPa, x2 = 0.7943 | 804
313.08 K, 11013 kPa, x2 = 0.7943 | 807.3
313.08 K, 11507 kPa, x2 = 0.7943 | 810.6
313.08 K, 11994 kPa, x2 = 0.7943 | 813.5
313.08 K, 12199 kPa, x2 = 0.7943 | 814.6
313.08 K, 12410 kPa, x2 = 0.7943 | 815.6
313.08 K, 12606 kPa, x2 = 0.7943 | 816.7
313.09 K, 2502 kPa, x2 = 0.139 | 781.7
313.09 K, 3002 kPa, x2 = 0.139 | 782.3
313.09 K, 3513 kPa, x2 = 0.139 | 782.9
313.09 K, 4008 kPa, x2 = 0.139 | 783.5
313.09 K, 4501 kPa, x2 = 0.139 | 784.1
313.09 K, 5001 kPa, x2 = 0.139 | 784.7
313.09 K, 5497 kPa, x2 = 0.139 | 785.3
313.09 K, 6023 kPa, x2 = 0.139 | 785.9
313.09 K, 6504 kPa, x2 = 0.139 | 786.5
313.09 K, 7026 kPa, x2 = 0.139 | 787.1
313.09 K, 7489 kPa, x2 = 0.139 | 787.6
313.09 K, 7960 kPa, x2 = 0.9492 | 642.1
313.09 K, 7998 kPa, x2 = 0.139 | 788.2
313.09 K, 8001 kPa, x2 = 0.9492 | 648.3
313.09 K, 8200 kPa, x2 = 0.9492 | 666.4
313.09 K, 8400 kPa, x2 = 0.9492 | 677.7
313.09 K, 8509 kPa, x2 = 0.139 | 788.8
313.09 K, 8606 kPa, x2 = 0.9492 | 688.5
313.09 K, 8803 kPa, x2 = 0.9492 | 697
313.09 K, 8995 kPa, x2 = 0.139 | 789.3
313.09 K, 9002 kPa, x2 = 0.9492 | 704
313.09 K, 9201 kPa, x2 = 0.9492 | 710.9
313.09 K, 9408 kPa, x2 = 0.9492 | 717.1
313.09 K, 9503 kPa, x2 = 0.139 | 789.8
313.09 K, 9604 kPa, x2 = 0.9492 | 722.7
313.09 K, 9800 kPa, x2 = 0.9492 | 728.1
313.09 K, 10003 kPa, x2 = 0.9492 | 733.1
313.09 K, 10201 kPa, x2 = 0.9492 | 737.5
313.09 K, 10405 kPa, x2 = 0.9492 | 741.5
313.09 K, 10605 kPa, x2 = 0.9492 | 744.7
313.09 K, 10803 kPa, x2 = 0.9492 | 747.4
313.1 K, 3601 kPa, x2 = 0.2003 | 786.8
313.1 K, 4007 kPa, x2 = 0.2003 | 787.4
313.1 K, 4523 kPa, x2 = 0.2003 | 788.1
313.1 K, 5069 kPa, x2 = 0.2003 | 788.7
313.1 K, 5497 kPa, x2 = 0.2003 | 789.3
313.1 K, 5812 kPa, x2 = 0.4248 | 801.4
313.1 K, 6012 kPa, x2 = 0.4248 | 801.7
313.1 K, 6027 kPa, x2 = 0.2003 | 790
313.1 K, 6200 kPa, x2 = 0.4248 | 802.1
313.1 K, 6395 kPa, x2 = 0.4248 | 802.6
313.1 K, 6504 kPa, x2 = 0.2003 | 790.7
313.1 K, 6602 kPa, x2 = 0.4248 | 803.1
313.1 K, 6803 kPa, x2 = 0.4248 | 803.5
313.1 K, 7010 kPa, x2 = 0.2003 | 791.3
313.1 K, 7055 kPa, x2 = 0.4248 | 804.1
313.1 K, 7208 kPa, x2 = 0.4248 | 804.3
313.1 K, 7409 kPa, x2 = 0.4248 | 804.8
313.1 K, 7494 kPa, x2 = 0.2003 | 791.9
313.1 K, 7611 kPa, x2 = 0.4248 | 805.2
313.1 K, 7802 kPa, x2 = 0.4248 | 805.7
313.1 K, 7989 kPa, x2 = 0.2003 | 792.6
313.1 K, 7998 kPa, x2 = 0.4248 | 806.1
313.1 K, 8201 kPa, x2 = 0.4248 | 806.5
313.1 K, 8557 kPa, x2 = 0.2003 | 793.2
313.1 K, 8597 kPa, x2 = 0.4248 | 807.3
313.1 K, 8797 kPa, x2 = 0.4248 | 807.6
313.1 K, 9017 kPa, x2 = 0.2003 | 793.8
313.1 K, 9024 kPa, x2 = 0.4248 | 808.1
313.1 K, 9602 kPa, x2 = 0.4248 | 809.3
313.1 K, 9636 kPa, x2 = 0.2003 | 794.6
313.1 K, 10055 kPa, x2 = 0.4248 | 810.1
313.12 K, 6801 kPa, x2 = 0.6086 | 802.8
313.12 K, 7000 kPa, x2 = 0.6086 | 803.5
313.12 K, 7203 kPa, x2 = 0.6086 | 804.4
313.12 K, 7402 kPa, x2 = 0.6086 | 805.2
313.12 K, 7602 kPa, x2 = 0.6086 | 806
313.12 K, 7804 kPa, x2 = 0.6086 | 806.8
313.12 K, 8010 kPa, x2 = 0.6086 | 807.7
313.12 K, 8124 kPa, x2 = 0.9715 | 526.2
313.12 K, 8197 kPa, x2 = 0.6086 | 808.3
313.12 K, 8400 kPa, x2 = 0.6086 | 809.1
313.12 K, 8526 kPa, x2 = 0.9715 | 627.3
313.12 K, 8602 kPa, x2 = 0.6086 | 809.8
313.12 K, 8812 kPa, x2 = 0.6086 | 810.5
313.12 K, 9000 kPa, x2 = 0.6086 | 811.3
313.12 K, 9002 kPa, x2 = 0.9715 | 662.5
313.12 K, 9213 kPa, x2 = 0.6086 | 812
313.12 K, 9392 kPa, x2 = 0.6086 | 812.6
313.12 K, 9522 kPa, x2 = 0.9715 | 689
313.12 K, 9600 kPa, x2 = 0.6086 | 813.3
313.12 K, 9802 kPa, x2 = 0.6086 | 814
313.12 K, 10001 kPa, x2 = 0.6086 | 814.6
313.12 K, 10021 kPa, x2 = 0.9715 | 708.1
313.12 K, 10520 kPa, x2 = 0.9715 | 722.7
313.12 K, 10993 kPa, x2 = 0.9715 | 734.9
313.12 K, 11514 kPa, x2 = 0.9715 | 746.8
313.12 K, 12038 kPa, x2 = 0.9715 | 757.3
313.12 K, 12512 kPa, x2 = 0.9715 | 765.8
313.12 K, 13003 kPa, x2 = 0.9715 | 773.6
313.12 K, 13500 kPa, x2 = 0.9715 | 781.1
313.12 K, 13998 kPa, x2 = 0.9715 | 788.2
313.12 K, 14495 kPa, x2 = 0.9715 | 794.8
313.12 K, 15008 kPa, x2 = 0.9715 | 801.1
323.03 K, 6842 kPa, x2 = 0.4248 | 786.9
323.03 K, 7010 kPa, x2 = 0.4248 | 787.3
323.03 K, 7302 kPa, x2 = 0.4248 | 788.1
323.03 K, 7530 kPa, x2 = 0.4248 | 788.6
323.03 K, 8004 kPa, x2 = 0.4248 | 789.7
323.03 K, 8302 kPa, x2 = 0.4248 | 790.4
323.03 K, 8401 kPa, x2 = 0.4248 | 790.6
323.03 K, 8500 kPa, x2 = 0.4248 | 790.8
323.03 K, 8603 kPa, x2 = 0.4248 | 791.2
323.03 K, 8710 kPa, x2 = 0.4248 | 791.4
323.03 K, 8821 kPa, x2 = 0.4248 | 791.7
323.03 K, 9000 kPa, x2 = 0.4248 | 792.1
323.03 K, 9209 kPa, x2 = 0.4248 | 792.5
323.03 K, 9309 kPa, x2 = 0.4248 | 792.8
323.03 K, 9401 kPa, x2 = 0.4248 | 793.1
323.03 K, 9502 kPa, x2 = 0.4248 | 793.3
323.03 K, 9601 kPa, x2 = 0.4248 | 793.4
323.03 K, 9728 kPa, x2 = 0.4248 | 793.7
323.05 K, 2995 kPa, x2 = 0.139 | 771.3
323.05 K, 3503 kPa, x2 = 0.139 | 771.9
323.05 K, 4003 kPa, x2 = 0.139 | 772.6
323.05 K, 4494 kPa, x2 = 0.139 | 773.2
323.05 K, 5074 kPa, x2 = 0.139 | 773.9
323.05 K, 5511 kPa, x2 = 0.139 | 774.5
323.05 K, 6033 kPa, x2 = 0.139 | 775.2
323.05 K, 7021 kPa, x2 = 0.139 | 776.4
323.05 K, 7506 kPa, x2 = 0.6086 | 779.7
323.05 K, 7514 kPa, x2 = 0.139 | 777.1
323.05 K, 7703 kPa, x2 = 0.6086 | 780.7
323.05 K, 7803 kPa, x2 = 0.6086 | 781.1
